This note sets out measurements from patent US20220389061A1, “IMMUNOMODULATORS” (priority 2019, published 2022).

Starred links: 1 amine or outer side, 2 acyl side, 3 side chain; linkers in the order of their positions; H or OH if unused. Positions of bridges follow the written chain, without caps; N, C: chain ends. Non-standard residues stand in square brackets, D forms with d. Residues, ends and D or L forms follow the SMILES beside them. Groups on a side chain read outwards from the residue. *: point of attachment. Trp(1-CH2CO2Me) = COC(=O)Cn1cc(C[C@H](N)C(=O)O)c2ccccc21; Trp(1-CH2COOH) = N[C@@H](Cc1cn(CC(=O)O)c2ccccc12)C(=O)O; Benzoyl(2-(4-MeOPh)) = COc1ccc(-c2ccccc2C(=O)*)cc1; NH(3,5-Cl2-phenyl) = Clc1cc(Cl)cc(N*)c1; X88 = Cc1cc([N+](=O)[O-])ccc1NC(=S)*; Hyp = O=C(O)[C@@H]1C[C@@H](O)CN1; X84 = COc1cc(NC(=S)*)cc(OC)c1OC; X28 = Cc1ccc(Cl)c(NC(=S)*)c1Cl; X29 = c1ccc(Oc2ccc(N*)cc2)cc1; NMeNle = CCCC[C@H](NC)C(=O)O; X64 = COc1cc(OC)c(N*)cc1Cl; X74 = Cc1cc(C)c(N*)c(C)c1; 4Abz = Nc1ccc(C(=O)O)cc1; NMeA = CN[C@@H](C)C(=O)O; X58 = COc1cc(N*)cc(OC)c1; Dab = NCC[C@H](N)C(=O)O; Dap = NC[C@H](N)C(=O)O; X46 = COc1ccc(Cl)cc1N*; X77 = Clc1cccc(N*)c1Cl; CO = O=C([*:1])[*:2]

T1 sequence (Q9NZQ7 18-239): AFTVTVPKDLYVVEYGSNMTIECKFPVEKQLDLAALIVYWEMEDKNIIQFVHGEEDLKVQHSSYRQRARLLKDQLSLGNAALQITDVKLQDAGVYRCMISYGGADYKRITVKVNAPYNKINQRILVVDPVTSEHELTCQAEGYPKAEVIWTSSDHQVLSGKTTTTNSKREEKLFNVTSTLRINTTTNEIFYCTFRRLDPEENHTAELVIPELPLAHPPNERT

The first test concerns the target T1, PD-1/PD-L1 (Homo sapiens, UniProt Q9NZQ7).
T1 construct: TVMV protease site linker (C); made in house; host or cells: HEK293T cells
Kind of test: PD-1/PD-L1 Homogenous Time-Resolved Fluorescence (HTRF) binding assay.
Settings: not given
An outline of the steps: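 Compounds preincubated 15 min with PD-L1-His (10 nM final), then PD-1-Ig (20 nM final) added for 15 min in dPBS with 0.1% BSA, 0.05% Tween-20. Detection by Eu-cryptate anti-Ig (1 nM) and APC anti-His (20 nM) HTRF.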
(In general: TR-FRET usually uses a lanthanide donor and a delayed reading to cut background.)
On to `CCCC[C@H]1C(=O)N(C)[C@@H](CCCC)C(=O)N[C@@H](CC(C)C)C(=O)N[C@H](C(=O)NCC(N)=O)CSCC(=O)N[C@@H](Cc2ccc(O)cc2)C(=O)N(C)[C@@H](C)C(=O)N[C@@H](CC(N)=O)C(=O)N2CCC[C@H]2C(=O)N[C@@H](CNC(=O)Nc2cc(Cl)cc(Cl)c2)C(=O)N[C@@H](CC(C)C)C(=O)N2C[C@H](O)C[C@H]2C(=O)N[C@@H](Cc2c[nH]c3ccccc23)C(=O)N[C@@H](CCN)C(=O)N[C@@H](Cc2cn(CC(=O)O)c3ccccc23)C(=O)N1C` [Example 1068] ({CH2CO}-Y[NMeA]NP[Dap]([CO-NH(3,5-Cl2-phenyl)])L[Hyp]W[Dab][Trp(1-CH2COOH)][NMeNle][NMeNle]LCG-NH2; thioether N-14), for which the half-maximal inhibitory concentration (IC50) is 4.3 nM.
Take `CCCC[C@H]1C(=O)N(C)[C@@H](CCCC)C(=O)N[C@@H](CC(C)C)C(=O)N[C@H](C(=O)NCC(N)=O)CSCC(=O)N[C@@H](Cc2ccc(O)cc2)C(=O)N(C)[C@@H](C)C(=O)N[C@@H](CC(N)=O)C(=O)N2CCC[C@H]2C(=O)N[C@@H](CNC(=O)Nc2cccc(Cl)c2Cl)C(=O)N[C@@H](CC(C)C)C(=O)N2C[C@H](O)C[C@H]2C(=O)N[C@@H](Cc2c[nH]c3ccccc23)C(=O)N[C@@H](CCN)C(=O)N[C@@H](Cc2cn(CC(=O)O)c3ccccc23)C(=O)N1C` [Example 1071] ({CH2CO}-Y[NMeA]NP[Dap]([CO-X77])L[Hyp]W[Dab][Trp(1-CH2COOH)][NMeNle][NMeNle]LCG-NH2; thioether N-14): the IC50 is 2.3 nM.

The test is the same for the next values; noted with them: PD-L1-His 10 nM pre-incubated with inhibitor, PD-1-Ig 20 nM; read-out: HTRF IC50.
Take `CCCC[C@H]1C(=O)N(C)[C@@H](CCCC)C(=O)N[C@@H](CC(C)C)C(=O)N[C@H](C(=O)NCC(N)=O)CSCC(=O)N[C@@H](Cc2ccc(O)cc2)C(=O)N(C)[C@@H](C)C(=O)N[C@@H](CC(N)=O)C(=O)N2CCC[C@H]2C(=O)N[C@@H](CNC(=O)c2ccccc2-c2ccc(OC)cc2)C(=O)N[C@@H](CC(C)C)C(=O)N2C[C@H](O)C[C@H]2C(=O)N[C@@H](Cc2c[nH]c3ccccc23)C(=O)N[C@@H](CCN)C(=O)N[C@@H](Cc2cn(CC(=O)O)c3ccccc23)C(=O)N1C` [Example 1063] ({CH2CO}-Y[NMeA]NP[Dap](Benzoyl(2-(4-MeOPh)))L[Hyp]W[Dab][Trp(1-CH2COOH)][NMeNle][NMeNle]LCG-NH2; thioether N-14): the IC50 stood at 3.7 nM.
The same measure, in the same setting: under `CCCC[C@H]1C(=O)N(C)[C@@H](CCCC)C(=O)N[C@@H](CC(C)C)C(=O)N[C@H](C(=O)NCC(N)=O)CSCC(=O)N[C@@H](Cc2ccc(O)cc2)C(=O)N(C)[C@@H](C)C(=O)N[C@@H](CC(N)=O)C(=O)N2CCC[C@H]2C(=O)N[C@@H](CNC(=O)Nc2cc(OC)cc(OC)c2)C(=O)N[C@@H](CC(C)C)C(=O)N2C[C@H](O)C[C@H]2C(=O)N[C@@H](Cc2c[nH]c3ccccc23)C(=O)N[C@@H](CCN)C(=O)N[C@@H](Cc2cn(CC(=O)O)c3ccccc23)C(=O)N1C` [Example 1064] ({CH2CO}-Y[NMeA]NP[Dap]([CO-X58])L[Hyp]W[Dab][Trp(1-CH2COOH)][NMeNle][NMeNle]LCG-NH2; thioether N-14) stands 3 nM; under `CCCC[C@H]1C(=O)N(C)[C@@H](CCCC)C(=O)N[C@@H](CC(C)C)C(=O)N[C@H](C(=O)NCC(N)=O)CSCC(=O)N[C@@H](Cc2ccc(O)cc2)C(=O)N(C)[C@@H](C)C(=O)N[C@@H](CC(N)=O)C(=O)N2CCC[C@H]2C(=O)N[C@@H](CNC(=S)Nc2cc(OC)c(OC)c(OC)c2)C(=O)N[C@@H](CC(C)C)C(=O)N2C[C@H](O)C[C@H]2C(=O)N[C@@H](Cc2c[nH]c3ccccc23)C(=O)N[C@@H](CCN)C(=O)N[C@@H](Cc2cn(CC(=O)O)c3ccccc23)C(=O)N1C` [Example 1065] ({CH2CO}-Y[NMeA]NP[Dap](X84)L[Hyp]W[Dab][Trp(1-CH2COOH)][NMeNle][NMeNle]LCG-NH2; thioether N-14), 2.8 nM.
Same read-out and setting: under `CCCC[C@H]1C(=O)N(C)[C@@H](CCCC)C(=O)N[C@@H](CC(C)C)C(=O)N[C@H](C(=O)NCC(N)=O)CSCC(=O)N[C@@H](Cc2ccc(O)cc2)C(=O)N(C)[C@@H](C)C(=O)N[C@@H](CC(N)=O)C(=O)N2CCC[C@H]2C(=O)N[C@@H](CNC(=O)Nc2c(C)cc(C)cc2C)C(=O)N[C@@H](CC(C)C)C(=O)N2C[C@H](O)C[C@H]2C(=O)N[C@@H](Cc2c[nH]c3ccccc23)C(=O)N[C@@H](CCN)C(=O)N[C@@H](Cc2cn(CC(=O)O)c3ccccc23)C(=O)N1C` [Example 1066] ({CH2CO}-Y[NMeA]NP[Dap]([CO-X74])L[Hyp]W[Dab][Trp(1-CH2COOH)][NMeNle][NMeNle]LCG-NH2; thioether N-14) stands 2.9 nM; under `CCCC[C@H]1C(=O)N(C)[C@@H](CCCC)C(=O)N[C@@H](CC(C)C)C(=O)N[C@H](C(=O)NCC(N)=O)CSCC(=O)N[C@@H](Cc2ccc(O)cc2)C(=O)N(C)[C@@H](C)C(=O)N[C@@H](CC(N)=O)C(=O)N2CCC[C@H]2C(=O)N[C@@H](CNC(=O)Nc2cc(Cl)c(OC)cc2OC)C(=O)N[C@@H](CC(C)C)C(=O)N2C[C@H](O)C[C@H]2C(=O)N[C@@H](Cc2c[nH]c3ccccc23)C(=O)N[C@@H](CCN)C(=O)N[C@@H](Cc2cn(CC(=O)O)c3ccccc23)C(=O)N1C` [Example 1067] ({CH2CO}-Y[NMeA]NP[Dap]([CO-X64])L[Hyp]W[Dab][Trp(1-CH2COOH)][NMeNle][NMeNle]LCG-NH2; thioether N-14), 2.7 nM; under `CCCC[C@H]1C(=O)N(C)[C@@H](CCCC)C(=O)N[C@@H](CC(C)C)C(=O)N[C@H](C(=O)NCC(N)=O)CSCC(=O)N[C@@H](Cc2ccc(O)cc2)C(=O)N(C)[C@@H](C)C(=O)N[C@@H](CC(N)=O)C(=O)N2CCC[C@H]2C(=O)N[C@@H](CNC(=O)Nc2ccc(C(=O)OCC)cc2)C(=O)N[C@@H](CC(C)C)C(=O)N2C[C@H](O)C[C@H]2C(=O)N[C@@H](Cc2c[nH]c3ccccc23)C(=O)N[C@@H](CCN)C(=O)N[C@@H](Cc2cn(CC(=O)O)c3ccccc23)C(=O)N1C` [Example 1069] ({CH2CO}-Y[NMeA]NP[Dap]([CO-4Abz-OEt])L[Hyp]W[Dab][Trp(1-CH2COOH)][NMeNle][NMeNle]LCG-NH2; thioether N-14), 0.4 nM.
Same read-out and setting: next, `CCCC[C@H]1C(=O)N(C)[C@@H](CCCC)C(=O)N[C@@H](CC(C)C)C(=O)N[C@H](C(=O)NCC(N)=O)CSCC(=O)N[C@@H](Cc2ccc(O)cc2)C(=O)N(C)[C@@H](C)C(=O)N[C@@H](CC(N)=O)C(=O)N2CCC[C@H]2C(=O)N[C@@H](CNC(=O)Nc2ccc(Oc3ccccc3)cc2)C(=O)N[C@@H](CC(C)C)C(=O)N2C[C@H](O)C[C@H]2C(=O)N[C@@H](Cc2c[nH]c3ccccc23)C(=O)N[C@@H](CCN)C(=O)N[C@@H](Cc2cn(CC(=O)O)c3ccccc23)C(=O)N1C` [Example 1070] ({CH2CO}-Y[NMeA]NP[Dap]([CO-X29])L[Hyp]W[Dab][Trp(1-CH2COOH)][NMeNle][NMeNle]LCG-NH2; thioether N-14): 5.5 nM; `CCCC[C@H]1C(=O)N(C)[C@@H](CCCC)C(=O)N[C@@H](CC(C)C)C(=O)N[C@H](C(=O)NCC(N)=O)CSCC(=O)N[C@@H](Cc2ccc(O)cc2)C(=O)N(C)[C@@H](C)C(=O)N[C@@H](CC(N)=O)C(=O)N2CCC[C@H]2C(=O)N[C@@H](CNC(=S)Nc2ccc([N+](=O)[O-])cc2C)C(=O)N[C@@H](CC(C)C)C(=O)N2C[C@H](O)C[C@H]2C(=O)N[C@@H](Cc2c[nH]c3ccccc23)C(=O)N[C@@H](CCN)C(=O)N[C@@H](Cc2cn(CC(=O)O)c3ccccc23)C(=O)N1C` [Example 1072] ({CH2CO}-Y[NMeA]NP[Dap](X88)L[Hyp]W[Dab][Trp(1-CH2COOH)][NMeNle][NMeNle]LCG-NH2; thioether N-14): 4.9 nM; `CCCC[C@H]1C(=O)N(C)[C@@H](CCCC)C(=O)N[C@@H](CC(C)C)C(=O)N[C@H](C(=O)NCC(N)=O)CSCC(=O)N[C@@H](Cc2ccc(O)cc2)C(=O)N(C)[C@@H](C)C(=O)N[C@@H](CC(N)=O)C(=O)N2CCC[C@H]2C(=O)N[C@@H](CNC(=S)Nc2c(Cl)ccc(C)c2Cl)C(=O)N[C@@H](CC(C)C)C(=O)N2C[C@H](O)C[C@H]2C(=O)N[C@@H](Cc2c[nH]c3ccccc23)C(=O)N[C@@H](CCN)C(=O)N[C@@H](Cc2cn(CC(=O)O)c3ccccc23)C(=O)N1C` [Example 1073] ({CH2CO}-Y[NMeA]NP[Dap](X28)L[Hyp]W[Dab][Trp(1-CH2COOH)][NMeNle][NMeNle]LCG-NH2; thioether N-14): 7.9 nM.
In the case of `CCCC[C@H]1C(=O)N(C)[C@@H](CCCC)C(=O)N[C@@H](CC(C)C)C(=O)N[C@H](C(=O)NCC(N)=O)CSCC(=O)N[C@@H](Cc2ccc(O)cc2)C(=O)N(C)[C@@H](C)C(=O)N[C@@H](CC(N)=O)C(=O)N2CCC[C@H]2C(=O)N[C@@H](CNC(=O)Nc2cc(Cl)ccc2OC)C(=O)N[C@@H](CC(C)C)C(=O)N2C[C@H](O)C[C@H]2C(=O)N[C@@H](Cc2c[nH]c3ccccc23)C(=O)N[C@@H](CCN)C(=O)N[C@@H](Cc2cn(CC(=O)O)c3ccccc23)C(=O)N1C` [Example 1074] ({CH2CO}-Y[NMeA]NP[Dap]([CO-X46])L[Hyp]W[Dab][Trp(1-CH2COOH)][NMeNle][NMeNle]LCG-NH2; thioether N-14), the IC50 is 6.3 nM.
The same measure, in the same setting: next, `CCCC[C@H]1C(=O)N(C)[C@@H](CCCC)C(=O)N[C@@H](CC(C)C)C(=O)N[C@H](C(=O)NCC(N)=O)CSCC(=O)N[C@@H](Cc2ccc(OC)cc2)C(=O)N(C)[C@@H](C)C(=O)N[C@@H](CC(N)=O)C(=O)N2CCC[C@H]2C(=O)N[C@@H](CNC(=O)c2ccccc2-c2ccc(OC)cc2)C(=O)N[C@@H](CC(C)C)C(=O)N2C[C@H](O)C[C@H]2C(=O)N[C@@H](Cc2c[nH]c3ccccc23)C(=O)N[C@@H](CCNC(=O)c2ccccc2-c2ccc(OC)cc2)C(=O)N[C@@H](Cc2cn(CC(=O)OC)c3ccccc23)C(=O)N1C` [Example 1075] ({CH2CO}-Y(Me)[NMeA]NP[Dap](Benzoyl(2-(4-MeOPh)))L[Hyp]W[Dab](Benzoyl(2-(4-MeOPh)))[Trp(1-CH2CO2Me)][NMeNle][NMeNle]LCG-NH2; thioether N-14): 91 nM.

For orientation: IC50 means the midpoint of a concentration-inhibition curve.
